The text below walks through data of US5955440A, “Macrolide LHRH antagonists” (Abbott Laboratories, priority 1998, dated 1999).

For this assay, the target named is T1, LHRH rat pituitary receptor (Rattus norvegicus, UniProt P30969).
T1 construct: from tissue; host or cells: rat pituitary
T1 sequence (P30969 1-327): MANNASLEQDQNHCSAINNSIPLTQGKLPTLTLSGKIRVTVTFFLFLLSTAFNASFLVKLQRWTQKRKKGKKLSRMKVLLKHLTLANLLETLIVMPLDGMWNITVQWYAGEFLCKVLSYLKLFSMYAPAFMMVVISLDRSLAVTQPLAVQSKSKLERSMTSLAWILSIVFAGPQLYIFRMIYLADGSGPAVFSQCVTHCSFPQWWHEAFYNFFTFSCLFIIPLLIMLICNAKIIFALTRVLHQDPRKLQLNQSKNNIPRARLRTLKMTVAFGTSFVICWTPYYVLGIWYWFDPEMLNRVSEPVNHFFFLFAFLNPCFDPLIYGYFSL
Nature of the assay: LHRH rat pituitary receptor binding (pKI). The conditions noted are these: negative logarithm of the equilibrium dissociation constants; for Ki: Table 1, read-out: receptor binding affinity (pKI) (converted). Here is the method:
Representative compounds of the present invention were evaluated in in vitro tests for LHRH rat pituitary receptor binding (pKI) and for LH inhibition from rat pituitary cells for antagonist potency (pA2). The tests employed the methods detailed in F. Haviv, et al. J. Med. Chem., 32: 2340-2344 (1989). The receptor binding affinity (pKI) is the negative logarithm of the equilibrium dissociation constants.

For `CC[C@H]1OC(=O)[C@H](C)[C@@H](O[C@H]2C[C@@](C)(OC)[C@@H](O)[C@H](C)O2)[C@H](C)[C@@H](O[C@@H]2O[C@H](C)C[C@H](N(C)CC3CC3)[C@H]2O)[C@](C)(OC)C[C@@H](C)C(=O)[C@H](C)[C@H]2N(CCc3ccc(Cl)c(Cl)c3)C(=O)O[C@]12C` [Example 55, 3'-N-Desmethyl-3'-N-cyclopropylmethyl-11-deoxy-11-[carboxy-(3,4-dichlorophenethylamino)]-6-O-methyl-erythromycin A 11,12-(cyclic carbamate)], the Ki was 7.24 nM. With `CCCN(C)[C@H]1C[C@@H](C)O[C@@H](O[C@@H]2[C@@H](C)[C@H](O[C@H]3C[C@@](C)(OC)[C@@H](O)[C@H](C)O3)[C@@H](C)C(=O)O[C@H](CC)[C@@]3(C)OC(=O)N(CCNc4ccc(Cl)cc4)[C@@H]3[C@@H](C)C(=O)[C@H](C)C[C@@]2(C)OC)[C@@H]1O` [Example 60, 3'-N-Desmethyl-3'-N-propyl-11-deoxy-11-[carboxy-(4-chloroanilinoethylamino)]-6-O-methyl-erythromycin A 11,12-(cyclic carbamate)], the Ki was 2.69 nM. As to `CC[C@H]1OC(=O)[C@H](C)[C@@H](O[C@H]2C[C@@](C)(OC)[C@@H](O)[C@H](C)O2)[C@H](C)[C@@H](O[C@@H]2O[C@H](C)C[C@H](N(C)C3CC(C)C(C)C3)[C@H]2O)[C@](C)(OC)C[C@@H](C)C(=O)[C@H](C)[C@H]2N(CCc3ccc(Cl)c(Cl)c3)C(=O)O[C@]12C` (stereo partly shown) [Example 9, 3'-N-Desmethyl-3'-N-(3,4-dimethylcyclopentyl)-11-deoxy-11-[carboxy-(3,4-dichlorophenethylamino)]-6-O-methyl-erythromycin A 11,12-(cyclic carbamate)], the “receptor binding affinity (pKI)” value (Table 1) is 8.36. Turning to `CC[C@H]1OC(=O)[C@H](C)[C@@H](O[C@H]2C[C@@](C)(OC)[C@@H](O)[C@H](C)O2)[C@H](C)[C@@H](O[C@@H]2O[C@H](C)C[C@H](N(C)CCCc3ccncc3)[C@H]2O)[C@](C)(OC)C[C@@H](C)C(=O)[C@H](C)[C@H]2N(CCc3ccc(F)c(Cl)c3)C(=O)O[C@]12C` [Example 81, 3'-N-Desmethyl-3'-N-[3-(4-pyridyl)propyl]-11-deoxy-11-[carboxy-(3-chloro-4-fluorophenethylamino)]-6-O-methyl-erythromycin A 11,12-(cyclic carbamate)], the Ki is 4.37 nM.

Turning to `CC[C@H]1OC(=O)[C@H](C)[C@@H](O[C@H]2C[C@@](C)(OC)[C@@H](O)[C@H](C)O2)[C@H](C)[C@@H](O[C@@H]2O[C@H](C)C[C@H](N(C)Cc3ccc4ccccc4c3Br)[C@H]2O)[C@](C)(OC)C[C@@H](C)C(=O)[C@H](C)[C@H]2N(CCc3ccc(Cl)c(Cl)c3)C(=O)O[C@]12C` [Example 72, 3'-N-Desmethyl-3'-N-(1-bromo-2-napthylmethyl)-11-deoxy-11-[carboxy-(3,4-dichlorophenethylamino)]-6-O-methyl-erythromycin A 11,12-(cyclic carbamate)], the Ki is 0.676 nM. Same read-out and setting: to `CC[C@H]1OC(=O)[C@H](C)[C@@H](O[C@H]2C[C@@](C)(OC)[C@@H](O)[C@H](C)O2)[C@H](C)[C@@H](O[C@@H]2O[C@H](C)C[C@H](N(C)C3CCCC3)[C@H]2O)[C@](C)(OC)C[C@@H](C)C(=O)[C@H](C)[C@H]2N(CCc3ccc(OC)cc3)C(=O)O[C@]12C` [Example 40, 3'-N-Desmethyl-3'-N-cyclopentyl-11-deoxy-11-[carboxy-(4-methoxyphenethylamino)]-6-O-methyl-erythromycin A 11,12-(cyclic carbamate)] belongs 5.75 nM; to `CC[C@H]1OC(=O)[C@H](C)[C@@H](O[C@H]2C[C@@](C)(OC)[C@@H](O)[C@H](C)O2)[C@H](C)[C@@H](O[C@@H]2O[C@H](C)C[C@H](N(C)C3CCCC3)[C@H]2O)[C@](C)(OC)C[C@@H](C)C(=O)[C@H](C)[C@H]2N(CCc3ccc(Cl)c(F)c3)C(=O)O[C@]12C` [Example 18, 3'-N-Desmethyl-3'-N-cyclopentyl-11-deoxy-11-[carboxy-(4-chloro-3-fluorophenethylamino)]-6-O-methyl-erythromycin A 11,12-(cyclic carbamate)], 5.89 nM.

Consider `CCCN(C)[C@H]1C[C@@H](C)O[C@@H](O[C@@H]2[C@@H](C)[C@H](O[C@H]3C[C@@](C)(OC)[C@@H](O)[C@H](C)O3)[C@@H](C)C(=O)O[C@H](CC)[C@@]3(C)OC(=O)N(CCc4ccc(OC)cc4)[C@@H]3[C@@H](C)C(=O)[C@H](C)C[C@@]2(C)OC)[C@@H]1O` [Example 39, 3'-N-Desmethyl-3'-N-propyl-11-deoxy-11-[carboxy-(4-methoxyphenethylamino)]-6-O-methyl-erythromycin A 11,12-(cyclic carbamate)], for which the Ki was 5.13 nM. Still for that read-out and setting: to `CC[C@H]1OC(=O)[C@H](C)[C@@H](O[C@H]2C[C@@](C)(OC)[C@@H](O)[C@H](C)O2)[C@H](C)[C@@H](O[C@@H]2O[C@H](C)C[C@H](N(C)C3CCCC3)[C@H]2O)[C@](C)(OC)C[C@@H](C)C(=O)[C@H](C)[C@H]2N(CC3(c4ccc(Cl)c(Cl)c4)CC3)C(=O)O[C@]12C` [Example 12, 3'-N-Desmethyl-3'-N-cyclopentyl-11-deoxy-11-[carboxy-(α,α-cyclopropyl-3,4-dichlorophenethylamino)]-6-O-methyl-erythromycin A 11,12-(cycliccarbamate)] belongs 2.09 nM; to `CCC(CC)N(C)[C@H]1C[C@@H](C)O[C@@H](O[C@@H]2[C@@H](C)[C@H](O[C@H]3C[C@@](C)(OC)[C@@H](O)[C@H](C)O3)[C@@H](C)C(=O)O[C@H](CC)[C@@]3(C)OC(=O)N(CCc4ccc(Cl)cc4)[C@@H]3[C@@H](C)C(=O)[C@H](C)C[C@@]2(C)OC)[C@@H]1O` [Example 36, 3'-N-Desmethyl-3'-N-(3-pentyl)-11-deoxy-11-[carboxy-(4-chlorophenethylamino)]-6-O-methyl-erythromycin A 11,12-(cyclic carbamate)], 9.12 nM; to `CC[C@H]1OC(=O)[C@H](C)[C@@H](O[C@H]2C[C@@](C)(OC)[C@@H](O)[C@H](C)O2)[C@H](C)[C@@H](O[C@@H]2O[C@H](C)C[C@H](N(C)CC3CCC3)[C@H]2O)[C@](C)(OC)C[C@@H](C)C(=O)[C@H](C)[C@H]2N(CCc3ccc(Cl)cc3)C(=O)O[C@]12C` [Example 19, 3'-N-Desmethyl-3'-N-cyclobutylmethyl-11-deoxy-11-[carboxy-(4-chlorophenethylamino)]-6-O-methyl-erythromycin A 11,12-(cyclic carbamate)], 1.58 nM.

Take `CC[C@H]1OC(=O)[C@H](C)[C@@H](O[C@H]2C[C@@](C)(OC)[C@@H](O)[C@H](C)O2)[C@H](C)[C@@H](O[C@@H]2O[C@H](C)C[C@H](N(C)C(C)C)[C@H]2O)[C@](C)(OC)C[C@@H](C)C(=O)[C@H](C)[C@H]2N(CCc3ccc(Cl)c(F)c3)C(=O)O[C@]12C` [Example 17, 3'-N-Desmethyl-3'-N-isopropyl-11-deoxy-11-[carboxy-(4-chloro-3-fluorophenethylamino)]-6-O-methyl-erythromycin A 11,12-(cyclic carbamate)]: the Ki was 4.27 nM.

On to `CC[C@H]1OC(=O)[C@H](C)[C@@H](O[C@H]2C[C@@](C)(OC)[C@@H](O)[C@H](C)O2)[C@H](C)[C@@H](O[C@@H]2O[C@H](C)C[C@H](N(C)Cc3ccc(OCCO)cc3)[C@H]2O)[C@](C)(OC)C[C@@H](C)C(=O)[C@H](C)[C@H]2N(CCc3ccc(F)c(Cl)c3)C(=O)O[C@]12C` [Example 49, 3'-N-Desmethyl-3'-N-(4-hydroxyethoxybenzyl)-11-deoxy-11-[carboxy-(3-chloro-4-fluorophenethylamino)]-6-O-methyl-erythromycin A 11,12-(cyclic carbamate)], for which the Ki was 3.16 nM. For `CC[C@H]1OC(=O)[C@H](C)[C@@H](O[C@H]2C[C@@](C)(OC)[C@@H](O)[C@H](C)O2)[C@H](C)[C@@H](O[C@@H]2O[C@H](C)C[C@H](N(C)C3CCCC3)[C@H]2O)[C@](C)(OC)C[C@@H](C)C(=O)[C@H](C)[C@H]2N(CCc3cccc(Cl)c3)C(=O)O[C@]12C` [Example 24, 3'-N-Desmethyl-3'-N-cyclopentyl-11-deoxy-11-[carboxy-(3-chlorophenethylamino)]-6-O-methyl-erythromycin A 11,12-(cyclic carbamate)], the Ki is 2.75 nM. For the compound `CC[C@H]1OC(=O)[C@H](C)[C@@H](O[C@H]2C[C@@](C)(OC)[C@@H](O)[C@H](C)O2)[C@H](C)[C@@H](O[C@@H]2O[C@H](C)C[C@H](N(C)Cc3ccc(-c4ccc(Cl)cc4)o3)[C@H]2O)[C@](C)(OC)C[C@@H](C)C(=O)[C@H](C)[C@H]2N(CCc3ccc(Cl)c(Cl)c3)C(=O)O[C@]12C` [Example 67, 3'-N-Desmethyl-3'-N-[5-(4-chlorophenyl)-2-furylmethyl]-11-deoxy-11-[carboxy-(3,4-dichlorophenethylamino)]-6-O-methyl-erythromycin A 11,12-(cyclic carbamate)], the Ki was 7.76 nM.

Turning to `CC[C@H]1OC(=O)[C@H](C)[C@@H](O[C@H]2C[C@@](C)(OC)[C@@H](O)[C@H](C)O2)[C@H](C)[C@@H](O[C@@H]2O[C@H](C)C[C@H](N(C)Cc3ccccn3)[C@H]2O)[C@](C)(OC)C[C@@H](C)C(=O)[C@H](C)[C@H]2N(CCc3ccc(F)c(Cl)c3)C(=O)O[C@]12C` [Example 47, 3'-N-Desmethyl-3'-N-(2-pyridyl)methyl-11-deoxy-11-[carboxy-(3-chloro-4-fluorophenethylamino)]-6-O-methyl-erythromycin A 11,12-(cyclic carbamate)], the Ki is 2.51 nM.
